Data on 13 compounds can be found in PubChem BioAssay AID651676 (Sanford-Burnham Center for Chemical Genomics, 2012).

The source made the active and inactive calls.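 Rule for the calls: active = EC50 concentration giving half the maximal stem cell survival boost at or below 20 µM; inactive = the rest.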

In this assay the test system is hiPSC single-cell survival, ATPlite luminescence. Kind of assay: hiPSC dissociated-cell viability enhancement – luminescence, SAR follow-up (AID 651676).
`CC(C)NC(=O)c1ccc2c(c1)S(=O)(=O)c1ccccc1C2=O`: the EC50 is > 80 µM (inactive).

Consider `COc1ccc(Cn2c(O)c(C=NCCCn3ccnc3)c(=O)[nH]c2=O)cc1`, for which the EC50 was > 80 µM (inactive).

Take `COc1ccc(CS(=O)(=O)/C(Cl)=C(/Cl)C(=O)Nc2ccc(OC)nc2)cc1`: the concentration for a half-maximal effect (EC50) is 14.1 µM.

Turning to `O=C(Nc1ccncc1)c1cc(S(=O)(=O)N2CCOCC2)ccc1Cl`, the EC50 was 26.3 µM (inactive).

On to `O=C(Nc1nc(-c2ccncc2)cs1)C1COc2ccccc2O1` (stereo not drawn), for which the 50% effective concentration (EC50) was 3.63 µM.

For the compound `COc1ccc(NC(=O)/C(Cl)=C(/Cl)S(=O)(=O)Cc2ccc(C)cc2)cn1`, the concentration giving a half-maximal response (EC50) was 16.6 µM.

Consider `CC(C)n1c(O)c(C2c3cc(Cl)ccc3Oc3[nH]c(=O)n(C(C)C)c(=O)c32)c(=O)[nH]c1=O` (stereo not drawn), for which the EC50 is 42.3 µM (inactive).

Regarding `O=C(Nc1ccncc1)c1cc(S(=O)(=O)N2CCCC2)ccc1Cl`, the EC50 was 20.6 µM (inactive).

In the case of `O=C(OCn1ncc(Br)c(Br)c1=O)c1ccccc1Cl`, the 50% effective concentration (EC50) is 6.27 µM.

As to `O=S(=O)(c1cccc2cnccc12)N1CCCNCC1`, the EC50 is 7.12 µM.

As to `NC(=O)c1ccc(NC(=O)CCC(=O)c2cccs2)cc1`, the concentration for a half-maximal effect (EC50) was 10.5 µM.

For the compound `Cn1c(=O)c2c(ncn2CC(=O)NCc2cccnc2)n(C)c1=O`, the EC50 is > 80 µM (inactive).

With `O=C(OCn1ncc(Cl)c(Cl)c1=O)c1cccc(C(F)(F)F)c1`, the EC50 is 21.6 µM (inactive).

By EC50 is commonly meant the midpoint of the concentration-response curve.
